Reference: patent US10767162B2, “Methods for differentiation” (PRESIDENT AND FELLOWS OF HARVARD COLLEGE, priority 2014, dated 2020)

B1: p21: protein CDK inhibitor, blocks CDK2; constitutively overexpressed in an mES cell line with a mCherry tag (protein, UniProt P39689 2-159, looked up)
Cyclin-dependent kinase …: SNPGDVRPVPHRSKVCRCLFGPVDSEQLRRDCDALMAGCLQEARERWNFDFVTETPLEGNFVWERVRSLGLPKVYLSPGSRSRDDLGGDKRPSTSSALLQGPAPEDHVALSLSCTLVSERPEDSPGGPGTSQGRKRRQTSLTDFYHSKRRLVFCKRKP
modifications: mCherry tag

Test system: ES cell line that constitutively over-expressed the transcription factor MyoD
Assay type: cell-based
Conditions: for effect on Pax3 expression: continuous treatment during differentiation; for effect on MyoG (myogenin) expression: continuous treatment for 7 days, high or low serum; for effect on MyoG (myogenin) expression / effect on MyoG expression under low serum conditions: MyoG measured on Day 7; for effect on MyoG expression under low serum conditions: low serum (2% HS+Insulin)
Procedure: Time courses of differentiation were run for 7 days similarly to the previous growth factor withdrawal experiments. MyoD was induced at Day −1, and LIF was removed at Day 0. Cells were kept in either high serum (15% FBS) or low serum (2% HS+Insulin) media throughout the time course. Drug treatments were applied continuously at the designated concentrations for the entire duration of the time course, with daily media change. mRNA expression levels were measured by qRT-PCR. […] All measurements are relative to a DMSO control for the specific condition (i.e. low serum values are still higher than in high serum). L=lethal; drug had strong anti-survival effects so no data was collected. Error bars indicate S.E.M. (n=2).
Perturbations were made both under high and low serum conditions and were extended throughout the time course of differentiation. LY294002 is a potent broad inhibitor of phosphoinositide-3-kinases (PI3Ks), and when applied continuously to ES cells over 7 days induced a significant 2.7 fold increase in Pax3 mRNA expression (FIG. 4). This increase was observed both in high serum and low serum media. […] Myc drives cell cycle progression and growth. […] Both are indirect inhibitors of Myc activity; as yet there are no direct pharmacologic inhibitors of the Myc protein.
The effects of inhibiting cyclin-dependent kinases (kinases that are more centrally involved in cell cycle control) and MAP kinase, which very often is involved in cell cycle regulation, were also examined. Roscovitine is a broad CDK inhibitor that blocks a number of family members, including CDK1, CDK2, and CDK5. After continuous treatment throughout the 7 days of differentiation in the time course, roscovitine had no effect on Pax3 expression (FIG. 4). It also had little effect on the later expression of MyoG, either under high or low serum conditions. […] However, the MAPK inhibitor PD98059, which blocks MEK1/2, had no effect on Pax3 and induced MyoG only under low serum conditions (FIG. 4 bottom). The protein CDK inhibitor p21, which is much more specific than roscovitine, blocks CDK2 and prevents entry into S-phase. In ES cells p21 is expressed at low levels, but gradually increases during the course of ES cell differentiation (13). An mES cell line that constitutively overexpresses the p21 protein bicistronically with a mCherry tag (fused to the C-terminus with a 2A peptide) was developed. […] Thus, within the set of cell cycle inhibitors examined, stage-specific and condition-specific effects on gene expression were observed.
ES culture and differentiation. The ES cells contain MyoD (and associated puromycin resistance marker) expressed from a EF1alpha promoter (5). MyoD could be expressed once a loxP segment inserted between the promoter and transgene was excised by a cre recombinase fused to the estrogen receptor. ES cells were cultured in LIF and standard conditions containing 15% FBS, non-essential amino acids, L-glutamine, penicillin/streptomycin, and beta-mercaptoethanol. To induce MyoD, cells were treated for 24 hrs with 1 μM 4OHT (Sigma) in ES media. Reduced serum media consisted of DMEM and 2% horse serum (Invitrogen) plus 10 μg/ml insulin (to maintain cell survival)(Sigma) with sodium pyruvate and penicillin/streptomycin. During differentiation, cells were treated with 1 μg/ml puromycin continuously to select for cells which maintained MyoD expression. N2B27 components/supplements and Knock-out serum replacement were purchased from Invitrogen. LIF was used at a 1000 U/ml and Bmp4 at 10 ng/ml.
Drugs. The PI3K inhibitor LY294002, Roscovitine, the MEK1/2 inhibitor PD98059, and 10058-F4 were purchased from Sigma. The E2F inhibitor HLM006474 was purchased from Millipore. PD0332991 was purchased from SelleckChem. JQ1 was purchased from ApexBio.
RNA isolation and RT-PCR. RNA was isolated using RNAeasy plus kit (Qiagen). Reverse transcription was performed using iScript™ cDNA synthesis (Bio-rad). […]

[1] = Pax3 measured on Day 3, relative to DMSO control

| Molecule | effect on Pax3 expression [1] | effect on MyoG (myogenin) expression | cell survival on continuing treatment | increase in Pax3 mRNA expression (applied continuously over 7 days, observed both in high serum and low serum media, relative to DMSO control, Pax3 measured on Day 3) | effect on MyoG expression under low serum conditions |
| --- | --- | --- | --- | --- | --- |
| Cc1sc2c(c1C)C(c1ccc(Cl)cc1)=N[C@@H](CC(=O)OC(C)(C)C)c1nnc(C)n1-2 [JQ1] | an increase in Pax3 early expression | later suppression of MyoG expression | – | – | – |
| CCOc1ccc(C(Nc2ccccn2)c2ccc3ccc(C)nc3c2O)cc1C (stereo not shown) [HLM006474] | induced Pax3 | suppressed MyoG expression | – | – | – |
| CCc1ccc(/C=C2/SC(=S)NC2=O)cc1 [10058-F4] | suppressive effects | suppressive effects | – | – | – |
| O=c1cc(N2CCOCC2)oc2c(-c3ccccc3)cccc12 [LY294002] | – | – | cell death | 2.7 fold | – |
| COc1cccc(-c2cc(=O)c3ccccc3o2)c1N [PD98059] | no effect | – | – | – | induced MyoG |
| CC(=O)c1c(C)c2cnc(Nc3ccc(N4CCNCC4)cn3)nc2n(C2CCCC2)c1=O [PD0332991] | lack of effect | lack of effect | – | – | – |
| CC[C@H](CO)Nc1nc(NCc2ccccc2)c2ncn(C(C)C)c2n1 [roscovitine, Roscovitine] | no effect | little effect | – | – | – |
| B1 | no effect | – | – | – | upregulated MyoG |
